Experimental data: ChEMBL document CHEMBL5241120, “Insights into the medicinal chemistry of heterocycles integrated with a pyrazolo[1,5-a]pyrimidine scaffold” (RSC Med Chem, 2022)
≈ marks a conversion by molar mass, not a printed value.

How the values were obtained:
Pseudomonas aeruginosa [1] = test: Antibacterial activity against Pseudomonas aeruginosa; type: functional
Escherichia coli [2] = test: Antibacterial activity against Escherichia coli; type: functional
Bacillus subtilis [3] = test: Antibacterial activity against Bacillus subtilis; type: functional
Staphylococcus aureus [4] = test: Antibacterial activity against Staphylococcus aureus; type: functional
Bacillus subtilis [5] = test: Antibacterial activity against Bacillus subtilis assessed as zone of inhibition; type: functional
HepG2 = test: Cytotoxicity against human HepG2 cells by MTT assay; type: functional, cell-based
HCT-116 = test: Cytotoxicity against human HCT-116 cells by MTT assay; type: functional, cell-based
Rattus norvegicus = test: Analgesic activity in Sprague-Dawley rat at 15 mg/kg after 2 hrs by hot plate test; type: functional
MCF7 = test: Cytotoxicity against human MCF7 cells by MTT assay; type: functional, cell-based
Candida albicans = test: Antifungal activity against Candida albicans assessed as zone of inhibition; type: functional
Salmonella enterica = test: Antibacterial activity against Salmonella enterica assessed as zone of inhibition; type: functional
Aspergillus niger [6] = test: Antifungal activity against Aspergillus niger assessed as zone of inhibition; type: functional
Staphylococcus aureus [7] = test: Antibacterial activity against Staphylococcus aureus assessed as zone of inhibition; type: functional
Aspergillus niger [8] = test: Antifungal activity against Aspergillus niger by dry weight method; type: functional
Aspergillus flavus = test: Antifungal activity against Aspergillus flavus by dry weight method; type: functional; set-up: unit not given beside the values
Fusarium verticillioides = test: Antifungal activity against Fusarium moniliforme by dry weight method; type: functional
Escherichia coli [9] = test: Antibacterial activity against Escherichia coli assessed as zone of inhibition; type: functional
Pseudomonas aeruginosa [10] = test: Antibacterial activity against Pseudomonas aeruginosa assessed as zone of inhibition; type: functional
[11] = biological target: T1, Prostaglandin G/H synthase 1 (Ovis aries, UniProt P05979); test: Inhibition of ovine COX-1
T1 sequence (P05979 whole entry): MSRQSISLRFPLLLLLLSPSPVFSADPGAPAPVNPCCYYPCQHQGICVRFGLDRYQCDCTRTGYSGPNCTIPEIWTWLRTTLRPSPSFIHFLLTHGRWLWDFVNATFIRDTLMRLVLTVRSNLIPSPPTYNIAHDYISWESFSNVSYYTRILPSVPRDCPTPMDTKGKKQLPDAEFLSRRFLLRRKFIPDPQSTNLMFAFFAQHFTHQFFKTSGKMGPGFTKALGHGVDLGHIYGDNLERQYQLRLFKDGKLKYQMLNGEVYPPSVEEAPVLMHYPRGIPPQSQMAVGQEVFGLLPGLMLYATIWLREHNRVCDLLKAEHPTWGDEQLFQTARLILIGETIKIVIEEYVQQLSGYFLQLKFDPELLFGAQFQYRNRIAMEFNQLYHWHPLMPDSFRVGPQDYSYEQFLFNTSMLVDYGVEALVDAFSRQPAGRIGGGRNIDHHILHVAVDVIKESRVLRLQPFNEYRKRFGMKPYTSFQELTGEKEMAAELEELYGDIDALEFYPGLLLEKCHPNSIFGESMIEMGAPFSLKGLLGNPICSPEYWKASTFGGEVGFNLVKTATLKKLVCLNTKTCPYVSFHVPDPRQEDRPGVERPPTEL

[12] = Inhibition of soybean 15-LOX; set-up: species or system Glycine max
SiHa = test: Cytotoxicity against human SiHa cells by MTT assay; type: functional, cell-based
HeLa = test: Cytotoxicity against human HeLa cells by MTT assay; type: functional, cell-based

Cc1ccc(-c2ccnc3c(C(N)=O)c(Nc4ccccc4)nn23)cc1
MIC (Pseudomonas aeruginosa [1]): 7.81 µg/mL (≈ 22.7 µM) | MIC (Escherichia coli [2]): 15.6 µg/mL (≈ 45.5 µM) | MIC (Bacillus subtilis [3]): 3.9 µg/mL (≈ 11.4 µM) | MIC (Staphylococcus aureus [4]): 7.81 µg/mL (≈ 22.7 µM) | inhibition zone (IZ) (Bacillus subtilis [5]): 9 mm

COc1cccc2c1C(=O)c1c(O)c3c(c(O)c1C2=O)C[C@@](O)(C(=O)CO)C[C@@H]3O[C@H]1C[C@H](N)[C@H](O)[C@H](C)O1 [DOXORUBICIN]
IC50 (HepG2): 80900 nM | IC50 (HCT-116): 1.6 µg/mL (≈ 2.94 µM)

CC1=Nc2cc(C)nn2C(=O)/C1=N\Nc1ccc(C)cc1
Activity (Rattus norvegicus): 96.7%

Cc1ccc(-c2nc3c(/N=N/c4cccc(C(F)(F)F)c4)c(N)nn3c(N)c2C#N)cc1
IC50 (MCF7): 2.79 µg/mL (≈ 6.39 µM) | IC50 (HepG2): 0.64 µg/mL | IC50 (HCT-116): 1.89 µg/mL (≈ 4.33 µM)

COC1=CC(=O)C[C@@H](C)[C@]12Oc1c(Cl)c(OC)cc(OC)c1C2=O [GRISEOFULVIN]
inhibition zone (IZ) (Candida albicans): 16.8 mm

COc1ccc(Nc2nn3c(-c4ccc(C)cc4)ccnc3c2C(N)=O)cc1
MIC (Pseudomonas aeruginosa [1]): 7.81 µg/mL (≈ 20.9 µM) | MIC (Escherichia coli [2]): 15.6 µg/mL (≈ 41.8 µM) | MIC (Bacillus subtilis [3]): 3.9 µg/mL (≈ 10.4 µM) | MIC (Staphylococcus aureus [4]): 7.81 µg/mL (≈ 20.9 µM)

CC(=O)c1cnc2c(C(=O)Nc3ccccc3)cnn2c1C
inhibition zone (IZ) (Salmonella enterica): 16 mm

O=C(O)Cc1ccccc1Nc1c(Cl)cccc1Cl [DICLOFENAC]
Activity (Rattus norvegicus): 84%

COc1ccc(Nc2nn3c(N)c(C#N)c(-c4cccc(Cl)c4)nc3c2C(=O)Nc2ccccc2)cc1
inhibition zone (IZ) (Aspergillus niger [6]): 15 mm

CSc1nn2c(-c3ccccc3)c(C#N)c(N)nc2c1-c1nc2ccccc2n1C
inhibition zone (IZ) (Staphylococcus aureus [7]): 9 mm | Activity (Aspergillus niger [8]): 0.51 | Activity (Aspergillus flavus): 0.36 | Activity (Fusarium verticillioides): 0.19

NC(=O)c1c(Nc2ccccc2)nn2c(-c3ccc(O)cc3)ccnc12
inhibition zone (IZ) (Escherichia coli [9]): 9 mm | inhibition zone (IZ) (Staphylococcus aureus [7]): 9 mm | inhibition zone (IZ) (Bacillus subtilis [5]): 9 mm | inhibition zone (IZ) (Pseudomonas aeruginosa [10]): 9 mm

COc1ccc(Nc2nn3c(N)c(C#N)c(-c4cccc(C)c4)nc3c2C(=O)Nc2ccc(Cl)cc2)cc1
inhibition zone (IZ) (Aspergillus niger [6]): 15 mm

COc1ccnc(Nc2n[nH]c(N)c2C#N)c1
IC50 [11]: 9100 nM | IC50 [12]: 14200 nM

O=C(c1cc(-c2ccccc2)n2nc(-c3ccccc3)cc2n1)N1CCN(C(=O)c2ccccc2NCc2ccco2)CC1
IC50 (SiHa): 1930 nM

CC1=CC(c2ccccc2)n2nc(-c3ccccc3)cc2N1 (stereo not drawn)
IC50 (MCF7): 2.79 µg/mL (≈ 9.71 µM) | IC50 (HepG2): 0.64 µg/mL | IC50 (HCT-116): 1.89 µg/mL (≈ 6.58 µM)

O=C(Nc1ccccc1)c1cnn2c(-c3ccncc3)ccnc12
inhibition zone (IZ) (Escherichia coli [9]): 12 mm | inhibition zone (IZ) (Salmonella enterica): 23 mm

COc1ccc(Nc2nn3c(N)c(C#N)c(-c4cc(OC)ccc4OC)nc3c2C(=O)Nc2ccccc2)cc1
inhibition zone (IZ) (Escherichia coli [9]): 16 mm | inhibition zone (IZ) (Bacillus subtilis [5]): 20 mm | inhibition zone (IZ) (Aspergillus niger [6]): 15 mm

Cc1ccc(-c2nc3c(/N=N/c4cccc(C(F)(F)F)c4)c(N)nn3c(O)c2C#N)cc1
IC50 (MCF7): 11.2 µg/mL (≈ 25.6 µM) | IC50 (HepG2): 8.47 µg/mL | IC50 (HCT-116): 12 µg/mL (≈ 27.4 µM)

CC[C@H](CO)Nc1nc(NCc2ccccc2)c2ncn(C(C)C)c2n1 [SELICICLIB]
IC50 (HeLa): 2200 nM | IC50 (SiHa): 2690 nM

C[C@@H]1C[C@@H]([C@H](O)CC2CC(=O)NC(=O)C2)C(=O)[C@@H](C)C1 [CYCLOHEXIMIDE]
inhibition zone (IZ) (Candida albicans): 32 mm

Cc1ccc(N/N=C2\C(=O)n3nc(C)cc3N=C2C(F)(F)F)cc1
Activity (Rattus norvegicus): 121.1%

Cc1cc(-n2ncc(C#N)c2N)n2ncc(C#N)c2n1
inhibition zone (IZ) (Escherichia coli [9]): 14.2 mm | inhibition zone (IZ) (Candida albicans): 17.1 mm | inhibition zone (IZ) (Bacillus subtilis [5]): 16.1 mm

COc1cc(CNc2ccccc2C(=O)N2CCN(C(=O)c3cc(-c4cc(OC)c(OC)c(OC)c4)n4nc(-c5ccccc5)cc4n3)CC2)cc(OC)c1OC
IC50 (HeLa): 1510 nM | IC50 (SiHa): 1910 nM

COc1ccc(Nc2nn3c(N)c(C#N)c(-c4cccc(Cl)c4)nc3c2C(=O)Nc2ccc(Cl)cc2)cc1
inhibition zone (IZ) (Aspergillus niger [6]): 15 mm

CSc1nn2c(C)cc(=O)[nH]c2c1-c1nc2ccccc2n1C
Activity (Aspergillus niger [8]): 0.26 | Activity (Aspergillus flavus): 0.16 | Activity (Fusarium verticillioides): 0.12

CSc1nn2c(-c3cccs3)c(C#N)c(N)nc2c1-c1nc2ccccc2n1C
Activity (Aspergillus niger [8]): 0.56 | Activity (Aspergillus flavus): 0.38 | Activity (Fusarium verticillioides): 0.28
